Source: ChEMBL document CHEMBL1149391, “SAR and mode of action of novel non-nucleoside inhibitors of hepatitis C NS5b RNA polymerase” (J Med Chem, 2006)
Activity calls are given as the source filed them. The calls are words filed in the database; no cut-off is given here.

Tests used:
[1] = biological target: RNA-directed RNA polymerase (Hepacivirus hominis, UniProt O39930); assay: Inhibitory activity against HCV delta 21 NS5b RNA polymerase
ECV-304 = assay: Cytotoxicity in E304 cells; format: functional, cell-based; conditions: Homo sapiens
HFF = assay: Cytotoxicity in HFF cells; format: functional, cell-based; conditions: Homo sapiens
[2] = Volume of distribution in rat at 0.86 mg/kg, iv; format: ADME, organism-based; design: dose 0.86 mg/kg, route intravenous; conditions: Sprague-Dawley, in vivo, read-out: Vdss
[3] = AUC(0-8h) in rat at 4.3 mg/kg, po; format: ADME, organism-based; design: time < 8 hr, dose 4.3 mg/kg, route oral; conditions: Sprague-Dawley, plasma
[4] = Half life in rat at 0.86 mg/kg, iv; format: ADME, organism-based; design: dose 0.86 mg/kg, route intravenous; conditions: Sprague-Dawley, in vivo
[5] = Plasma clearance in rat at 0.86 mg/kg, iv; format: ADME, organism-based; design: dose 0.86 mg/kg, route intravenous; conditions: Sprague-Dawley
[6] = Cmax in rat at 4.3 mg/kg, po; format: ADME, organism-based; design: dose 4.3 mg/kg, route oral; conditions: Sprague-Dawley, in vivo
[7] = Tmax in rat at 4.3 mg/kg, po; format: ADME, organism-based; design: dose 4.3 mg/kg, route oral; conditions: Sprague-Dawley, in vivo
[8] = Half life in rat at 0.16 mg/kg, iv; format: ADME, organism-based; design: dose 0.16 mg/kg, route intravenous; conditions: Sprague-Dawley, in vivo
[9] = AUC(0-8h) in rat at 4.1 mg/kg, po; format: ADME, organism-based; design: time < 8 hr, dose 4.1 mg/kg, route oral; conditions: Sprague-Dawley, plasma
[10] = Plasma clearance in rat at 0.16 mg/kg, iv; format: ADME, organism-based; design: dose 0.16 mg/kg, route intravenous; conditions: Sprague-Dawley
[11] = Inhibition of Calpain
[12] = biological target: Aldo-keto reductase family 1 member B1 (Homo sapiens) (UniProt P15121); assay: Inhibition of aldose reductase
[13] = Volume of distribution in rat at 0.16 mg/kg, iv; format: ADME, organism-based; design: dose 0.16 mg/kg, route intravenous; conditions: Sprague-Dawley, in vivo, read-out: Vdss
[14] = Cmax in rat at 4.1 mg/kg, po; format: ADME, organism-based; design: dose 4.1 mg/kg, route oral; conditions: Sprague-Dawley, in vivo
[15] = Tmax in rat at 4.1 mg/kg, po; format: ADME, organism-based; design: dose 4.1 mg/kg, route oral; conditions: Sprague-Dawley, in vivo
Homo sapiens = species: Homo sapiens; assay: Inhibition of human Caspase (caspase 1, caspase 3, caspase 6, caspase 7, caspase 8)
[16] = biological target: Cathepsin B (Homo sapiens) (UniProt P07858); assay: Inhibition of Cathepsin B
Tubulin (Homo sapiens) = Tubulin (Homo sapiens) (UniProt P68371+Q9H4B7+P0DPH7+P68366+Q13509+Q71U36+P04350+Q3ZCM7+P07437+P68363+Q9BQE3+Q6PEY2+Q13885+Q9BVA1+Q9BUF5); assay: Effect on tubulin polymerization; format: functional
[17] = biological target: T1, Avian myoblastosis virus polyprotein II (Avian myeloblastosis virus, UniProt Q86831); assay: Inhibitory activity against AMV Reverse transcriptase
T1 sequence (Q86831 whole entry): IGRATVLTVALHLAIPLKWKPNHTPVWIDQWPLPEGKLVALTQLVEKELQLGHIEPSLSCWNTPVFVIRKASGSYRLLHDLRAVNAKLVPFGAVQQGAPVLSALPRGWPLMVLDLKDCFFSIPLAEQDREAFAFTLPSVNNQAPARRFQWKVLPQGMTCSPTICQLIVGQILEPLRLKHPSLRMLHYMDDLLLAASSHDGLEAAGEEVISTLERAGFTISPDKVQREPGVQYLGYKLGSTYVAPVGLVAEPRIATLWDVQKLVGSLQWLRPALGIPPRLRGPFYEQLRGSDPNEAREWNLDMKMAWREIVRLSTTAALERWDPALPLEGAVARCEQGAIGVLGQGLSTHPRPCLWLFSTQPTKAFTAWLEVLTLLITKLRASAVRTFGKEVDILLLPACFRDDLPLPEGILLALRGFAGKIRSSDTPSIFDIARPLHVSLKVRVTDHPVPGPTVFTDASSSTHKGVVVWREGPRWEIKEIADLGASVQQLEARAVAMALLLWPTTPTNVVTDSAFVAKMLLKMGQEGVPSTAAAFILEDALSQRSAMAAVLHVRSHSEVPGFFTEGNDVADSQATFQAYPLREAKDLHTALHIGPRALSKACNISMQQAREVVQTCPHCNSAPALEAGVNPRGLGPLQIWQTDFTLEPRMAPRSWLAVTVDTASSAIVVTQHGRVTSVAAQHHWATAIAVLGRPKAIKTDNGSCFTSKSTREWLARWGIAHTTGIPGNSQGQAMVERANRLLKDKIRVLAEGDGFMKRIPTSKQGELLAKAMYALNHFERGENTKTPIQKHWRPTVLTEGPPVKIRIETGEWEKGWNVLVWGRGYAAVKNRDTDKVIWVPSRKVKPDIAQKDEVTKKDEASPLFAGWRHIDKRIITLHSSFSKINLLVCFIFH

Genome polyprotein = Genome polyprotein (Bovine viral diarrhea virus (strain CP7) (BVDV) (Mucosal diseasevirus), UniProt Q96662); assay: Inhibitory activity against BVDV NS5b RNA polymerase; design: species or system Bovine viral diarrhea virus 1
Sequence of Genome polyprotein (Q96662 3189-3907 limits assumed): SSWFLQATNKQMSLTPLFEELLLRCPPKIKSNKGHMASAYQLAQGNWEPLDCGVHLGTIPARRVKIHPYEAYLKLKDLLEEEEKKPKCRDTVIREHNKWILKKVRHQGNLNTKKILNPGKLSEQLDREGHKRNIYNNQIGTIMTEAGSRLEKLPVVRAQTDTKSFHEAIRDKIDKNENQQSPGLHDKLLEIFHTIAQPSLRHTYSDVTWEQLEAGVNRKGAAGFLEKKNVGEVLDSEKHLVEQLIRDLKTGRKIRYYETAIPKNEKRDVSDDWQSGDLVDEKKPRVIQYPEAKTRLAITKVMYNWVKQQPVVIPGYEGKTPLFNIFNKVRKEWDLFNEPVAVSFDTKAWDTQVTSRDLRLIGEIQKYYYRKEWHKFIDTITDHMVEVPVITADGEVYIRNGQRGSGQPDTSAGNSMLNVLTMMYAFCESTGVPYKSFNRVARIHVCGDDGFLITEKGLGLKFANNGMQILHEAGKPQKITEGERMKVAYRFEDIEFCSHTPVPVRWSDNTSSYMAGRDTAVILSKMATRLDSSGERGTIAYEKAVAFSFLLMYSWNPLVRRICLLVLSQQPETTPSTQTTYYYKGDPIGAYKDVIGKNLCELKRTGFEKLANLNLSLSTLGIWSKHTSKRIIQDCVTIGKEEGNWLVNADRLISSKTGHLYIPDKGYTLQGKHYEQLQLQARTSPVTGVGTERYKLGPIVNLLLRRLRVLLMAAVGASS

Sequence of RNA-directed RNA polymerase (O39930 whole entry): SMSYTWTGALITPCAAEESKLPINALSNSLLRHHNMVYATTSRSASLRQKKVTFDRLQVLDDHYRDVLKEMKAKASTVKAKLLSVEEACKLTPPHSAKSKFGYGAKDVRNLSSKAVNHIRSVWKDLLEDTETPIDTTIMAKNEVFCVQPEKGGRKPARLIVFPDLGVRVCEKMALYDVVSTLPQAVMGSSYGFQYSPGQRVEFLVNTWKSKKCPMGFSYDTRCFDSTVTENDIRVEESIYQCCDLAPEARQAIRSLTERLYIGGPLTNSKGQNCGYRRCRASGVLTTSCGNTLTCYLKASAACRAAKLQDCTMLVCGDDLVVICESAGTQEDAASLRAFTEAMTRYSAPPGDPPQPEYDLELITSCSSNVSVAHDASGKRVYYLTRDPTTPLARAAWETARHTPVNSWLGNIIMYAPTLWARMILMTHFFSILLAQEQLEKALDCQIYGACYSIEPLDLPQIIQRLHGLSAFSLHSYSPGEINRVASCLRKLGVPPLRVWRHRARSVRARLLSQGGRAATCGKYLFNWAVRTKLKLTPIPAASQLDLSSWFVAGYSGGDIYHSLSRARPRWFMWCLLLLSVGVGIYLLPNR

SMILES	IC50 [1] [µM]	IC50 (ECV-304) [µM]	IC50 (HFF) [µM]	other results
O=C1/C(=C/c2ccc([N+](=O)[O-])cc2)SC(=S)N1NS(=O)(=O)c1ccccc1	2	> 50	> 100	–
CN(C)c1ccc(/C=C2\SC(=S)N(N)C2=O)cc1	> 30	–	–	–
O=C1/C(=C/c2ccccc2F)SC(=S)N1NS(=O)(=O)c1ccccc1	6.5	> 50	> 100	–
Cc1cccc(/C=C2\SC(=S)N(NS(=O)(=O)c3ccccc3)C2=O)c1	25	> 50	> 100	–
C/C(=C1/SC(=S)N(NS(=O)(=O)c2ccccc2)C1=O)c1ccc(Cl)c(Cl)c1	0.6	–	–	–
O=C1/C(=C/c2ccc(Cl)c(Cl)c2)SC(=S)N1NS(=O)(=O)c1cccs1	0.2	> 50	> 100	Vd [2]: 0.7 L/kg; AUC(0-t) at 8 h [3]: 25600 ng·h/mL; half-life [4]: 3.3 h; clearance [5]: 2.83 mL/min/kg; Cmax [6]: 3970 ng/mL; Tmax [7]: 1.7 h
O=C1/C(=C/c2ccc(Br)c(Br)c2)SC(=S)N1NS(=O)(=O)c1ccccc1	0.2	> 50	> 100	–
N#Cc1ccc(/C=C2\SC(=S)N(N)C2=O)cc1	7	–	–	–
O=C1NC(=S)S/C1=C\c1ccc([N+](=O)[O-])cc1	22	–	–	–
Cc1ccc(/C=C2\SC(=S)N(NS(=O)(=O)c3ccccc3)C2=O)cc1	10	> 50	> 100	–
COc1ccc(/C=C2\SC(=S)N(N)C2=O)cc1	> 30	–	–	–
NN1C(=O)/C(=C/c2ccc([N+](=O)[O-])cc2)SC1=S	1	–	–	–
O=C1/C(=C/c2cc(F)ccc2F)SC(=S)N1NS(=O)(=O)c1ccccc1	1.7	> 50	> 100	–
O=C1/C(=C/c2ccc(Br)cc2)SC(=S)N1NS(=O)(=O)c1ccccc1	0.7	> 50	> 100	–
O=C1/C(=C/c2ccc(Cl)cc2)SC(=S)N1Cc1ccccc1	> 30	–	–	–
NN1C(=O)/C(=C/c2ccc(Cl)cc2)SC1=S	16	–	–	–
N#Cc1ccc(/C=C2\SC(=S)N(NS(=O)(=O)c3ccccc3)C2=O)cc1	0.9	> 50	> 100	–
CCN1C(=O)/C(=C/c2ccc(Cl)cc2)SC1=S	> 30	–	–	–
O=C1/C(=C/c2ccc(Cl)c(Cl)c2)SC(=S)N1NS(=O)(=O)c1ccccc1	0.2	> 50	> 100	half-life [8]: 9.2 h; AUC(0-t) at 8 h [9]: 25500 ng·h/mL; clearance [10]: 0.125 mL/min/kg; Activity [11]: inactive; Activity [12]: inactive; Vd [13]: 0.09 L/kg; Cmax [14]: 3740 ng/mL; Tmax [15]: 3.3 h; Activity (Homo sapiens): inactive; Activity [16]: inactive; Activity (Tubulin (Homo sapiens)): inactive
O=C1/C(=C/c2cccnc2)SC(=S)N1NS(=O)(=O)c1ccccc1	15	> 50	> 100	–
O=C1/C(=C/c2ccc(C(F)(F)F)cc2)SC(=S)N1NS(=O)(=O)c1ccccc1	1	> 50	> 100	–
O=C1/C(=C/c2cc(F)c(F)cc2F)SC(=S)N1NS(=O)(=O)c1ccccc1	0.2	> 50	> 100	–
O=C1/C(=C/c2ccc3ccccc3c2)SC(=S)N1NS(=O)(=O)c1ccccc1	3	> 50	> 100	–
CS(=O)(=O)NN1C(=O)/C(=C/c2ccc(Cl)c(Cl)c2)SC1=S	2	–	–	–

SMILES	IC50 [1] [µM]	IC50 (ECV-304) [µM]	IC50 (HFF) [µM]	other results
O=C(NN1C(=O)/C(=C/c2ccc(Cl)cc2)SC1=S)c1ccccc1	> 30	–	–	–
O=C1NC(=S)S/C1=C\c1ccc(Cl)cc1	> 30	–	–	–
O=C1/C(=C/c2ccc(-c3cc(C(F)(F)F)ccc3Cl)o2)SC(=S)N1NS(=O)(=O)c1ccccc1	0.1	–	–	–
Cc1ccc(/C=C2\SC(=S)N(NS(=O)(=O)c3ccccc3)C2=O)cc1C	8	> 50	> 100	–
COc1cccc(/C=C2\SC(=S)N(NS(=O)(=O)c3ccccc3)C2=O)c1	5	> 50	> 100	–
O=C1/C(=C/c2ccc(Cl)c(F)c2)SC(=S)N1NS(=O)(=O)c1ccccc1	1	> 50	> 100	–
O=C1/C(=C/c2ccc3c(c2)OCO3)SC(=S)N1NS(=O)(=O)c1ccccc1	15	> 50	> 100	–
NN1C(=O)/C(=C/c2ccccc2)SC1=S	> 30	–	–	–
CCCCS(=O)(=O)NN1C(=O)/C(=C/c2ccc(Cl)c(Cl)c2)SC1=S	0.7	–	–	–
O=S(=O)(NN1C(=S)SC(Cc2ccc(Cl)c(Cl)c2)C1O)c1ccccc1 (stereo unspecified)	27	–	–	–
CC(/C=C1\SC(=S)N(NS(=O)(=O)c2ccccc2)C1=O)=C\c1ccccc1	0.2	> 50	> 100	–
O=C1/C(=C/c2ccc(F)cc2)SC(=S)N1NS(=O)(=O)c1ccccc1	1	> 50	> 100	–
O=C1/C(=C/c2ccc(Cl)cc2)SC(=S)N1NS(=O)(=O)c1ccccc1	1.5	–	–	IC50 [17]: > 30 µM; IC50 (Genome polyprotein): > 30 µM
CN1C(=O)/C(=C/c2ccc(Cl)cc2)SC1=S	> 30	–	–	–
O=C1/C(=C/c2ccc(F)c(F)c2F)SC(=S)N1NS(=O)(=O)c1ccccc1	1.9	> 50	> 100	–
COc1ccc(/C=C2\SC(=S)N(NS(=O)(=O)c3ccccc3)C2=O)cc1	5	> 50	> 100	–
O=C1C(Cc2ccc(Cl)c(Cl)c2)SC(=S)N1NS(=O)(=O)c1ccccc1 (stereo unspecified)	11	–	–	–
Cc1ccc(/C=C2\SC(=S)N(N)C2=O)cc1	> 30	–	–	–
NN1C(=O)/C(=C/c2ccc(F)cc2)SC1=S	7	–	–	–
O=C1/C(=C/c2ccccc2)SC(=S)N1NS(=O)(=O)c1ccccc1	30	> 50	> 100	–
O=C1/C(=C/c2ccc(F)cc2F)SC(=S)N1NS(=O)(=O)c1ccccc1	3	> 50	> 100	–
O=C1/C(=C/c2cc(F)c(F)c(F)c2)SC(=S)N1NS(=O)(=O)c1ccccc1	1	> 50	> 100	–
CN1C(=O)/C(=C/c2ccc([N+](=O)[O-])cc2)SC1=S	30	–	–	–
